Columns and labels:
Format in all cases: in vivo
[1] = test system: pigweed (Amaranthus retroflexus); assay: Test A preemergence; settings: Amaranthus retroflexus, pre-emergence, 240 h, Preemergence
[2] = test system: giant foxtail (Setaria faberii); assay: Test A preemergence; settings: Setaria faberi, pre-emergence, 240 h, Preemergence
Summary of the method: (§1)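 Treatment is preemergence as a directed soil spray after planting, or postemergence at the one- to two-leaf stage, with test chemical in a non-phytotoxic solvent mixture plus surfactant. Plants stay in the greenhouse about 10 d before visual injury scoring on a 0 to 100 scale versus untreated controls.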

Kochia (Kochia scoparia) [3] = assay: Test A preemergence; settings: Bassia scoparia, pre-emergence, 240 h, Preemergence
Summary of the method: as §1

[4] = test system: ragweed (common ragweed, Ambrosia elatior); assay: Test A preemergence; settings: Ambrosia artemisiifolia, pre-emergence, 240 h, Preemergence
Summary of the method: as §1

[5] = test system: barnyardgrass (Echinochloa crus-galli); assay: Test A preemergence; settings: Echinochloa crus-galli, pre-emergence, 240 h, Preemergence
Summary of the method: as §1

[6] = test system: ryegrass, Italian (Italian ryegrass, Lolium multiflorum); assay: Test A preemergence; settings: Lolium multiflorum, pre-emergence, 240 h, Preemergence
Summary of the method: as §1

rice (Oryra sativa) = assay: Test B flooded paddy test; settings: Oryza sativa, 250 g ai/ha, Flood; 0 to 100 scale where 0 is no effect and 100 is complete control; read-out: Rice plant response rating
Summary of the method: (§2)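 Compound goes directly into floodwater once pots are flooded 3 cm above soil, targeting plants at two leaves; the water depth is then held for the test duration. Plants sit 13–15 d in a greenhouse and are rated visually, 100 denoting complete control.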

[7] = test system: ducksalad (Heteranthera limosa); assay: Test B flooded paddy test; settings: Heteranthera limosa, 250 g ai/ha, Flood; 0 to 100 scale where 0 is no effect and 100 is complete control; read-out: Ducksalad plant response rating
Summary of the method: as §2

[8] = test system: barnyardgrass (Echinochloa crus-galli); assay: Test B flooded paddy test; settings: Echinochloa crus-galli, 250 g ai/ha, Flood; 0 to 100 scale where 0 is no effect and 100 is complete control; read-out: Barnyardgrass plant response rating
Summary of the method: as §2

[9] = test system: sedge, umbrella (small-flower umbrella sedge, Cyperus difformis); assay: Test B flooded paddy test; settings: Cyperus difformis, 250 g ai/ha, Flood; 0 to 100 scale where 0 is no effect and 100 is complete control; read-out: Sedge, Umbrella plant response rating
Summary of the method: as §2

[10] = test system: wheat (Triticum aestivum); assay: Test A postemergence; settings: Triticum aestivum, post-emergence, 240 h, Postemergence, read-out: Plant response rating, Wheat
Summary of the method: as §1

[11] = test system: pigweed (Amaranthus retroflexus); assay: Test A postemergence; settings: Amaranthus retroflexus, post-emergence, 240 h, Postemergence, read-out: Plant response rating, Pigweed
Summary of the method: as §1

[12] = test system: giant foxtail (Setaria faberii); assay: Test A postemergence; settings: Setaria faberi, post-emergence, 240 h, Postemergence, read-out: Plant response rating, Foxtail, Giant
Summary of the method: as §1

Kochia (Kochia scoparia) [13] = assay: Test A postemergence; settings: Bassia scoparia, post-emergence, 240 h, Postemergence, read-out: Plant response rating, Kochia
Summary of the method: as §1

[14] = test system: ragweed (common ragweed, Ambrosia elatior); assay: Test A postemergence; settings: Ambrosia artemisiifolia, post-emergence, 240 h, Postemergence, read-out: Plant response rating, Ragweed
Summary of the method: as §1

[15] = test system: blackgrass (Alopecurus myosuroides); assay: Test A postemergence; settings: Alopecurus myosuroides, post-emergence, 240 h, Postemergence, read-out: Plant response rating, Blackgrass
Summary of the method: as §1

[16] = test system: Galium (catchweed bedstraw, Galium aparine); assay: Test A postemergence; settings: Galium, post-emergence, 240 h, Postemergence, read-out: Plant response rating, Galium
Summary of the method: as §1

[17] = test system: barnyardgrass (Echinochloa crus-galli); assay: Test A postemergence; settings: Echinochloa crus-galli, post-emergence, 240 h, Postemergence, read-out: Plant response rating, Barnyardgrass
Summary of the method: as §1

corn (Zea mays) = assay: Test A postemergence; settings: Zea mays, post-emergence, 240 h, Postemergence
Summary of the method: as §1

[18] = test system: ryegrass, Italian (Italian ryegrass, Lolium multiflorum); assay: Test A postemergence; settings: Lolium multiflorum, post-emergence, 240 h, Postemergence, read-out: Plant response rating, Ryegrass, Italian
Summary of the method: as §1

[19] = 125 g ai/ha, visual injury after approximately 10 d, 0 to 100 scale where 0 is no effect and 100 is complete control
[20] = 31 g ai/ha, visual injury after approx. 10 d, 0 to 100 scale, 0 no effect, 100 complete control

CSc1ccccc1NC(=O)[C@H]1C(=O)N(C2CC2)CC[C@@H]1c1ccc(F)cc1 [Compound 1005]
0%: pest or weed control at 31 g/ha ([1]; 31 g ai/ha, 0 to 100 scale where 0 is no effect and 100 is complete control, read-out: Pigweed plant response rating) | pest or weed control at 125 g/ha ([1]; 125 g ai/ha, visual injury rating after approximately 10 d, read-out: Pigweed plant response rating (0 to 100 scale, 0 is no effect, 100 is complete control)) | pest or weed control at 125 g/ha ([2]; 125 g ai/ha, visual injury rating after approximately 10 d, read-out: Foxtail, Giant plant response rating (0 to 100 scale, 0 is no effect, 100 is complete control)) | pest or weed control at 31 g/ha ([2]; 31 g ai/ha, 0 to 100 scale (0 no effect, 100 complete control), read-out: Plant response rating, Foxtail, Giant) | pest or weed control at 31 g/ha (Kochia (Kochia scoparia) [3]; 31 g ai/ha, 0 to 100 scale where 0 is no effect and 100 is complete control, read-out: Kochia plant response rating) | pest or weed control at 125 g/ha (Kochia (Kochia scoparia) [3]; 125 g ai/ha, visual injury rating after approximately 10 d, read-out: Kochia plant response rating (0 to 100 scale, 0 is no effect, 100 is complete control)) | pest or weed control at 31 g/ha ([4]; 31 g ai/ha, 0 to 100 scale where 0 is no effect and 100 is complete control, read-out: Ragweed plant response rating) | pest or weed control at 125 g/ha ([4]; 125 g ai/ha, visual injury rating after approximately 10 d, read-out: Ragweed plant response rating (0 to 100 scale, 0 is no effect, 100 is complete control)) | pest or weed control at 125 g/ha ([5]; 125 g ai/ha, visual injury rating after approximately 10 d, read-out: Barnyardgrass plant response rating (0 to 100 scale, 0 is no effect, 100 is complete control)) | pest or weed control at 31 g/ha ([5]; 31 g ai/ha, 0 to 100 scale (0 no effect, 100 complete control), read-out: Plant response rating, Barnyardgrass) | pest or weed control at 31 g/ha ([6]; 31 g ai/ha, 0 to 100 scale where 0 is no effect and 100 is complete control, read-out: Ryegrass, Italian plant response rating) | pest or weed control at 125 g/ha ([6]; 125 g ai/ha, visual injury rating after approximately 10 d, read-out: Ryegrass, Italian plant response rating (0 to 100 scale, 0 is no effect, 100 is complete control)) | pest or weed control at 250 g/ha (rice (Oryra sativa)) | pest or weed control at 250 g/ha [7] | pest or weed control at 250 g/ha [8] | pest or weed control at 250 g/ha [9] | plant injury at 125 g/ha [10, 19] | plant injury at 31 g/ha [10, 20] | pest or weed control at 125 g/ha [11, 19] | pest or weed control at 31 g/ha [11, 20] | pest or weed control at 125 g/ha [12, 19] | pest or weed control at 31 g/ha [12, 20] | pest or weed control at 125 g/ha (Kochia (Kochia scoparia) [13]; [19]) | pest or weed control at 31 g/ha (Kochia (Kochia scoparia) [13]; [20]) | pest or weed control at 125 g/ha [14, 19] | pest or weed control at 31 g/ha [14, 20] | pest or weed control at 125 g/ha [15, 19] | pest or weed control at 31 g/ha [15, 20] | pest or weed control at 125 g/ha [16, 19] | pest or weed control at 31 g/ha [16, 20] | pest or weed control at 125 g/ha [17, 19] | pest or weed control at 31 g/ha [17, 20] | Corn plant response rating (crop injury, 0 = no effect, 100 = complete kill) at 125 g/ha (corn (Zea mays); [19]) | Corn plant response rating (crop injury, 0 = no effect, 100 = complete kill) at 31 g/ha (corn (Zea mays); [20]) | pest or weed control at 125 g/ha [18, 19] | pest or weed control at 31 g/ha [18, 20]
